Earlier results as cited in US20040101555A1, “Method for stable and controlled delivery of (—)-hydroxycitric acid” (priority 2002, published 2004).

How the values were obtained:
[1] = single large oral dose or two divided oral doses totaling one fourth of the single dose; high-sugar diet
[2] = over a three week period; higher dosage, alone

| Structure (SMILES) | reduction in food consumption [1] [%] | average weight loss [2] [pounds per week] |
| --- | --- | --- |
| O=C(O)CC(O)(C(=O)O)C(O)C(=O)O (single isomer, unassigned; (-)) [HCA, (−)-Hydroxycitric acid] | ≥ 10 |  |
| O=C([O-])CC(O)(C(=O)[O-])C(O)C(=O)[O-].[K+].[K+].[K+] (stereo not drawn) [potassium (−)-hydroxycitirate, potassium (−)-hydroxycitrate] |  | 3 |
